# “And” between values parts separate entries of the source, which are not always exact repeats. Identical values can stand only once. Toxic doses and inconclusive results are not listed.
# System: L1210 leukemia ip in BDF1 mice, survival T/C
# Assay: NCI In Vivo Anticancer Drug Screen. Data for tumor model L1210 Leukemia (intraperitoneal) in B6D2F1 (BDF1) mice
# Conditions: endpoint: mean survival time, higher = longer survival
# How it was run: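 Transplanted-tumor mice were given test agent; controls received vehicle only. Survival readings from the two groups were divided (treated over control).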
# [1] = dose: 100.0 mg/kg/injection, schedule: Q01DX001 (ip), vehicle: Klucel (hydroxypropylcellulose) (HPC)
# [2] = dose: 200.0 mg/kg/injection, schedule: Q01DX001 (ip), vehicle: Klucel (hydroxypropylcellulose) (HPC)
# [3] = dose: 400.0 mg/kg/injection, schedule: Q01DX001 (ip), vehicle: Klucel (hydroxypropylcellulose) (HPC)
# [4] = dose: 100.0 mg/kg/injection, schedule: Q01DX009 (ip), vehicle: saline
# [5] = dose: 200.0 mg/kg/injection, schedule: Q01DX009 (ip), vehicle: saline
# [6] = dose: 100.0 mg/kg/injection, schedule: Q04DX003 (ip), vehicle: Klucel (hydroxypropylcellulose) (HPC)
# [7] = dose: 200.0 mg/kg/injection, schedule: Q04DX003 (ip), vehicle: Klucel (hydroxypropylcellulose) (HPC)
# [8] = dose: 12.5 mg/kg/injection, schedule: Q01DX009 (ip), vehicle: Klucel (hydroxypropylcellulose) (HPC)
# [9] = dose: 25.0 mg/kg/injection, schedule: Q01DX009 (ip), vehicle: Klucel (hydroxypropylcellulose) (HPC)
# [10] = dose: 100.0 mg/kg/injection, schedule: Q01DX001 (ip), vehicle: saline
# [11] = dose: 200.0 mg/kg/injection, schedule: Q01DX001 (ip), vehicle: saline
# [12] = dose: 400.0 mg/kg/injection, schedule: Q01DX001 (ip), vehicle: saline
# [13] = dose: 400.0 mg/kg/injection, schedule: Q01DX009 (ip), vehicle: saline
# [14] = dose: 400.0 mg/kg/injection, schedule: Q04DX003 (ip), vehicle: Klucel (hydroxypropylcellulose) (HPC)
# [15] = dose: 100.0 mg/kg/injection, schedule: Q01DX009 (ip), vehicle: Klucel (hydroxypropylcellulose) (HPC)
# [16] = dose: 200.0 mg/kg/injection, schedule: Q01DX009 (ip), vehicle: Klucel (hydroxypropylcellulose) (HPC)
# [17] = dose: 50.0 mg/kg/injection, schedule: Q01DX009 (ip), vehicle: Klucel (hydroxypropylcellulose) (HPC)
smiles,measurement,setting,value
N#C[CH2][Sn]([c]1ccccc1)([c]1ccccc1)[c]1ccccc1,T/C,"dose: 12.5 mg/kg/injection, schedule: Q04DX002 (ip), vehicle: saline with Tween-80",100 % of control
same,T/C,"dose: 25.0 mg/kg/injection, schedule: Q04DX002 (ip), vehicle: saline with Tween-80",96 % of control
same,T/C,"dose: 50.0 mg/kg/injection, schedule: Q04DX002 (ip), vehicle: saline with Tween-80",93 % of control
O=P1(c2ccccc2)CCc2[nH]c3ccc(F)cc3c2C1 (stereo not given),T/C,[1],97 % of control
same,T/C,[2],100 % of control
same,T/C,[3],98 % of control
CC(NC(=O)C(N)CSC(c1ccccc1)(c1ccccc1)c1ccccc1)C(=O)O (stereo not given),T/C,"dose: 25.0 mg/kg/injection, schedule: Q01DX009 (ip), vehicle: other",121 % of control
same,T/C,"dose: 25.0 mg/kg/injection, schedule: Q01DX009 (ip), vehicle: saline",114 % of control
same,T/C,"dose: 50.0 mg/kg/injection, schedule: Q01DX009 (ip), vehicle: saline",122 % of control
same,T/C,[4],152 % of control
same,T/C,"dose: 200.0 mg/kg/injection, schedule: Q01DX009 (ip), vehicle: other",88 % of control
same,T/C,[5],111 % of control
CC(C)(C)OC(=O)NNC(=O)c1ccc([N+](=O)[O-])cc1,T/C,"dose: 4.12 mg/kg/injection, schedule: Q01DX009 (ip), vehicle: Klucel (hydroxypropylcellulose) (HPC)",118 % of control
same,T/C,"dose: 4.12 mg/kg/injection, schedule: Q01DX009 (ip), vehicle: saline",92 % of control
same,T/C,"dose: 6.25 mg/kg/injection, schedule: Q01DX009 (ip), vehicle: Klucel (hydroxypropylcellulose) (HPC)",124 % of control
same,T/C,"dose: 6.25 mg/kg/injection, schedule: Q01DX009 (ip), vehicle: saline",96 % of control
same,T/C,"dose: 9.37 mg/kg/injection, schedule: Q01DX009 (ip), vehicle: Klucel (hydroxypropylcellulose) (HPC)",100 % of control
same,T/C,"dose: 9.37 mg/kg/injection, schedule: Q01DX009 (ip), vehicle: saline",94 % of control
same,T/C,"dose: 35.0 mg/kg/injection, schedule: Q01DX009 (ip), vehicle: saline",121 % of control
same,T/C,"dose: 50.0 mg/kg/injection, schedule: Q04DX003 (ip), vehicle: Klucel (hydroxypropylcellulose) (HPC)",96 % of control
same,T/C,"dose: 55.0 mg/kg/injection, schedule: Q01DX009 (ip), vehicle: saline",102 % of control
same,T/C,"dose: 80.0 mg/kg/injection, schedule: Q01DX009 (ip), vehicle: saline",105 % of control
same,T/C,"dose: 100.0 mg/kg/injection, schedule: Q01DX001 (ip), vehicle: other",102 % of control
same,T/C,[6],93 % of control
same,T/C,"dose: 120.0 mg/kg/injection, schedule: Q01DX009 (ip), vehicle: Klucel (hydroxypropylcellulose) (HPC)",92 % of control
same,T/C,"dose: 180.0 mg/kg/injection, schedule: Q01DX009 (ip), vehicle: Klucel (hydroxypropylcellulose) (HPC)",97 % of control
same,T/C,"dose: 200.0 mg/kg/injection, schedule: Q01DX001 (ip), vehicle: other",95 % of control
same,T/C,[7],91 % of control
CCCCCCCCCCC/C=N\[N+](C)(C)C,T/C,[8],108 % of control
same,T/C,[9],95 % of control
COc1nccnc1NS(=O)(=O)c1ccc(N)cc1,T/C,[10],95 % of control
same,T/C,[4],92 % of control
same,T/C,[11],96 % of control
same,T/C,[5],106 % of control
same,T/C,[12],102 % of control
same,T/C,[13],92 % of control
O=C(COc1ccc(Cl)cc1Cl)Nc1ncn[nH]1,T/C,[1],101 % of control
same,T/C,[2],104 % of control
same,T/C,[3],95 % of control
Cc1cc(O)ccc1CCC#N,T/C,[4],96 % of control and 91 % of control
same,T/C,"dose: 100.0 mg/kg/injection, schedule: Q04DX002 (ip), vehicle: saline with Tween-80",95 % of control and 101 % of control
same,T/C,[5],104 % of control and 115 % of control
same,T/C,"dose: 200.0 mg/kg/injection, schedule: Q04DX002 (ip), vehicle: saline with Tween-80",95 % of control and 96 % of control
same,T/C,[13],96 % of control and 89 % of control
same,T/C,"dose: 400.0 mg/kg/injection, schedule: Q04DX002 (ip), vehicle: saline with Tween-80",95 % of control and 101 % of control
CCOC(=O)C(COS(=O)(=O)c1ccc(C)cc1)(COS(=O)(=O)c1ccc(C)cc1)C(=O)OCC,T/C,[4],92 % of control
same,T/C,[6],97 % of control
same,T/C,[5],94 % of control
same,T/C,[7],93 % of control
same,T/C,[14],93 % of control
CCOC(O)(C(F)(F)F)C(F)(F)F,T/C,"dose: 12.5 mg/kg/injection, schedule: Q01DX009 (ip), vehicle: saline with Tween-80",96 % of control
same,T/C,"dose: 12.5 mg/kg/injection, schedule: Q04DX003 (ip), vehicle: saline with Tween-80",95 % of control
same,T/C,"dose: 25.0 mg/kg/injection, schedule: Q01DX009 (ip), vehicle: saline with Tween-80",105 % of control
same,T/C,"dose: 50.0 mg/kg/injection, schedule: Q04DX003 (ip), vehicle: saline with Tween-80",97 % of control
same,T/C,[10],98 % of control
O=S(=O)(Cc1ccccc1)Nc1cccc(S(=O)(=O)OCc2ccccc2)c1,T/C,[1],102 % of control
same,T/C,[15],104 % of control
same,T/C,[6],100 % of control
same,T/C,[2],98 % of control
same,T/C,[16],95 % of control
same,T/C,[7],94 % of control
same,T/C,[3],106 % of control
same,T/C,"dose: 400.0 mg/kg/injection, schedule: Q01DX009 (ip), vehicle: Klucel (hydroxypropylcellulose) (HPC)",97 % of control
same,T/C,[14],92 % of control
Nn1nnc2ccccc21,T/C,[10],95 % of control
same,T/C,[11],97 % of control
same,T/C,[12],97 % of control
CC(=O)Nc1ccc(S(=O)(=O)F)cc1C,T/C,[15],98 % of control
same,T/C,[16],95 % of control
COC(=O)C1=C(O)CCCC=C1C(=O)O,T/C,"dose: 100.0 mg/kg/injection, schedule: Q01DX001 (ip), vehicle: carboxymethylcellulose (CMC)",100 % of control
same,T/C,"dose: 200.0 mg/kg/injection, schedule: Q01DX001 (ip), vehicle: carboxymethylcellulose (CMC)",103 % of control
same,T/C,"dose: 400.0 mg/kg/injection, schedule: Q01DX001 (ip), vehicle: carboxymethylcellulose (CMC)",103 % of control
CCC[As](=O)(O)CC,T/C,[4],103 % of control
same,T/C,[5],105 % of control
CC1(C)OC2C(CO)OC(n3cnc4c(N)ncnc43)C2O1 (stereo not given),T/C,[9],103 % of control
same,T/C,[17],98 % of control
same,T/C,[15],100 % of control
same,T/C,[6],103 % of control
same,T/C,[7],103 % of control
Nc1nc2c(c(=O)[nH]1)[N+]1=CN(c3ccc(C(=O)NC(CCC(=O)O)C(=O)O)cc3)CCC1CN2 (stereo not given),T/C,"dose: 1.0 mg/kg/injection, schedule: Q01DX009 (ip), vehicle: saline",94 % of control
same,T/C,"dose: 2.0 mg/kg/injection, schedule: Q01DX009 (ip), vehicle: saline",100 % of control
same,T/C,"dose: 4.0 mg/kg/injection, schedule: Q01DX009 (ip), vehicle: saline",105 % of control
same,T/C,"dose: 4.0 mg/kg/injection, schedule: Q04DX003 (ip), vehicle: saline",97 % of control
same,T/C,"dose: 8.0 mg/kg/injection, schedule: Q01DX009 (ip), vehicle: saline",94 % of control
same,T/C,"dose: 8.0 mg/kg/injection, schedule: Q04DX003 (ip), vehicle: saline",100 % of control
same,T/C,"dose: 16.0 mg/kg/injection, schedule: Q01DX009 (ip), vehicle: saline",97 % of control
same,T/C,"dose: 16.0 mg/kg/injection, schedule: Q04DX003 (ip), vehicle: saline",99 % of control
same,T/C,"dose: 32.0 mg/kg/injection, schedule: Q04DX003 (ip), vehicle: saline",90 % of control
same,T/C,"dose: 64.0 mg/kg/injection, schedule: Q04DX003 (ip), vehicle: saline",97 % of control
CCOC(C#Cc1ccccc1)OCC,T/C,"dose: 100.0 mg/kg/injection, schedule: Q04DX003 (ip), vehicle: saline",105 % of control
same,T/C,"dose: 200.0 mg/kg/injection, schedule: Q04DX003 (ip), vehicle: saline",114 % of control
same,T/C,"dose: 400.0 mg/kg/injection, schedule: Q04DX003 (ip), vehicle: saline",95 % of control
CCC(C)(CC)OC(=O)c1ccc([N+](=O)[O-])cc1,T/C,"dose: 100.0 mg/kg/injection, schedule: Q04DX002 (ip), vehicle: Klucel (hydroxypropylcellulose) (HPC)",113 % of control
same,T/C,"dose: 200.0 mg/kg/injection, schedule: Q04DX002 (ip), vehicle: Klucel (hydroxypropylcellulose) (HPC)",106 % of control
same,T/C,"dose: 400.0 mg/kg/injection, schedule: Q04DX002 (ip), vehicle: Klucel (hydroxypropylcellulose) (HPC)",97 % of control
ClC(Cl)(Cl)c1nccnc1Br,T/C,[8],111 % of control
same,T/C,[9],94 % of control
same,T/C,[17],94 % of control and 104 % of control
CNC(=S)c1ccc(Cl)cc1,T/C,[8],96 % of control
same,T/C,[9],94 % of control
